Assay results: patent US20100120715A1, “BETA-LACTAMASE INHIBITORS” (priority 2007, published 2010)
Read-outs that look alike come from different tables or passages of the source.

Columns and labels:
[1] = system: K. pneumoniae expressing the Class A carbapenemase KPC-2; experiment: microbe, parasite or virus in culture; conditions: for MIC of example compound, K. pneumoniae KPC-2 + 8 μg/mL CAZ: in the presence of fixed 8 μg/mL Ceftazidime
[2] = system: E. coli expressing the Class A ESBL SHV-5; experiment: microbe, parasite or virus in culture; type: cell-based
Source text: (§1) To determine the ability of test compounds to potentiate the inhibition of the growth of bacterial strains producing beta-lactamase enzymes, classic cell based screening assays were employed. Four bacteria strains producing beta-lactamase enzymes were used: K. pneumoniae expressing the Class A Extended Spectrum Beta-Lactamase (ESBL) CTX-M-15, E. coli expressing the Class A ESBL SHV-5, E. cloacae expressing the Class C P99+, and K. pneumoniae expressing the Class A carbapenemase KPC-2. In order to evaluate the ability of test compounds to inhibit beta-lactamase activity, Applicants used a modification of the broth microdilution assay. The assay was conducted in Cation Adjusted Mueller Hinton Broth (CAMHB, BD # 212322, BD Diagnostic Systems, Sparks, Md.). Bacteria strains were grown for 3-5 hours in CAMBH broth. All four strains were grown in presence of 50 μg/mL ampicillin to ensure resistance is maintained. In the meantime, test compounds were diluted in DMSO to a 0.1 mg/mL stock. The compounds were added to a microtiter plate and were diluted in 2-fold serial dilutions in CAMHB in a final concentration range of 8 μg/mL to 0.015 μg/ml. An overlay of CAMHB containing a cephalosporin was added to the compounds at a final static concentration of 8 μg/ml. […] Each of these compound plates are made in quadruplicate, one for each bacteria strain. In addition to the titration of test compounds the MICs of a panel of cephalosporins is also tested to ensure the strains are behaving consistently from test to test. Once the test compound and cephalosporin are added the plates can be inoculated. Inocula are conducted according to CLSI broth microdilution method. After inoculation the plates are incubated for 16-20 hours at 37° C. then the Minimal Inhibitory Concentration (MIC) of the test compound is determined visually.

[3] = system: E. cloacae expressing the Class C P99+ AmpC; experiment: microbe, parasite or virus in culture; type: cell-based; conditions: for MIC of example compound, E. cloacae P99 AmpC + 8 μg/mL CAZ: in the presence of fixed 8 μg/mL Ceftazidime
Source text: as §1

[4] = system: K. pneumoniae expressing the Class A ESBL CTX-M-15; experiment: microbe, parasite or virus in culture; type: cell-based; conditions: for MIC of example compound, K. pneumoniae CTX-M-15 + 8 μg/mL CAZ: in the presence of fixed 8 μg/mL Ceftazidime
[5] = target: T1, Class C P99 AmpC (Enterobacter cloacae, UniProt P05364); type: biochemical; conditions: purified enzyme; nitrocefin 100 μM, PBS pH 7.0; read-out: P99 AmpC IC50 Range
T1 construct: made in house; host or cells: E. coli BL21(DE3)
Outline: (§2)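 Native untagged enzymes were expressed in E. coli BL21(DE3) and purified by cation exchange and gel filtration. Compound series (100–0.005 μM in PBS pH 7.0, before addition of an equal enzyme volume) were preincubated with enzyme 10 min at 37°C. Nitrocefin (100 μM final) hydrolysis was read kinetically at 486 nm for 10 min, and IC50 was taken as 50% reduction of initial rate versus no-inhibitor wells.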

[6] = target: T2, Class A ESBL SHV-5 (Klebsiella pneumoniae, UniProt P0A3M1); type: biochemical, E. coli; conditions: nitrocefin 100 μM, PBS pH 7.0, read-out: SHV-5 IC50 Range
T2 construct: made in house; host or cells: E. coli BL21(DE3) for purified enzyme; E. coli cells containing SHV-5 for extracts

[7] = target: T3, Class A ESBL CTXM-15 (Escherichia coli, UniProt Q9EXV5); experiment: β-lactamase enzyme inhibition (nitrocefin hydrolysis), CTXM-15; type: biochemical; conditions: purified enzyme; nitrocefin 100 μM, PBS pH 7.0; read-out: CTXM-15 IC50 Range
T3 construct: made in house; host or cells: E. coli BL21(DE3)
Outline: as §2

[8] = target: T4, Class A carbapenemase KPC-2 (Klebsiella pneumoniae, UniProt Q9F663); experiment: β-lactamase enzyme inhibition (nitrocefin hydrolysis), KPC-2; type: biochemical; conditions: purified enzyme; nitrocefin 100 μM, PBS pH 7.0; read-out: KPC-2 IC50 Range
T4 construct: made in house; host or cells: E. coli BL21(DE3)
Outline: as §2

[9] = Klebsiella pneumoniae, read-out: MIC alone
[10] = cellular extracts of E. coli containing SHV-5 (Examples 2-30)
[11] = purified beta-lactamase enzyme (Examples 1 and 31-64)

T3 sequence (Q9EXV5 entry or part of it): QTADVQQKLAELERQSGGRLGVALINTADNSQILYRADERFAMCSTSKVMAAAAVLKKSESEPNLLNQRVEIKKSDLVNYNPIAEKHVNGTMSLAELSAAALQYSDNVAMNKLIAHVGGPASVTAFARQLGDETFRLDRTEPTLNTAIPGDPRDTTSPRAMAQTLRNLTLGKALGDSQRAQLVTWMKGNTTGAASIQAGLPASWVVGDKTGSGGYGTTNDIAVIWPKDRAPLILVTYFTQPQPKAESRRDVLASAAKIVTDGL
T1 sequence (P05364 21-381): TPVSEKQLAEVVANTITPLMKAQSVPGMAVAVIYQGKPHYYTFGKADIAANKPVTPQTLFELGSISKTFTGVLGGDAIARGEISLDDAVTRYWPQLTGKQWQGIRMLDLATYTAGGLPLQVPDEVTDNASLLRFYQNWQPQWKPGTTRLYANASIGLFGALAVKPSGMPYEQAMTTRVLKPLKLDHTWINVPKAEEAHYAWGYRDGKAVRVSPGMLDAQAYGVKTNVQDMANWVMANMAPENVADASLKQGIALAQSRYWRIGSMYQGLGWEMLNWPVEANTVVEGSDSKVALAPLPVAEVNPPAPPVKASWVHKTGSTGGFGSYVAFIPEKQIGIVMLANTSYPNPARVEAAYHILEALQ
T2 sequence (P0A3M1 22-286): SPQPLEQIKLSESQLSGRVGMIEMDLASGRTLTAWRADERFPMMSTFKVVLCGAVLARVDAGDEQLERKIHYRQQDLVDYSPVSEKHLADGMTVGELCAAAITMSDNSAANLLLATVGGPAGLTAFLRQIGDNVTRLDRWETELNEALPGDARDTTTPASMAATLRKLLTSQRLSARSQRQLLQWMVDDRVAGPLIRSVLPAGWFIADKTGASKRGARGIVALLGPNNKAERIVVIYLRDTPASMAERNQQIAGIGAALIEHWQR
T4 sequence (Q9F663 25-293 limits assumed): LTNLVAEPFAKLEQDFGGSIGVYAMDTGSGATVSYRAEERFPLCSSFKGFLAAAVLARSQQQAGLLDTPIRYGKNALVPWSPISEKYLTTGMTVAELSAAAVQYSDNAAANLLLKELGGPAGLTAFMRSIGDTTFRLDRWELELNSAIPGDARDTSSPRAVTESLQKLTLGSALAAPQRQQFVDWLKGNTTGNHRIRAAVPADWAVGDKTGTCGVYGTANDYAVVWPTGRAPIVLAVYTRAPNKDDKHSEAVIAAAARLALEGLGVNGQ

Row | Compound | MIC [1, 9] [µg/mL] | MIC ([2]; Escherichia coli, read-out: MIC alone) [µg/mL] | MIC ([3]; Enterobacter cloacae, read-out: MIC alone) [µg/mL] | MIC [4, 9] [µg/mL] | IC50 [5] [nM] | MIC of example compound, K. pneumoniae KPC-2 + 8 μg/mL CAZ [1] | IC50 [6, 10] [nM] | IC50 [7] [nM] | MIC of example compound, E. coli SHV-5 + 8 μg/mL CAZ ([2]; in the presence of fixed 8 μg/mL Ceftazidime) | MIC of example compound, E. cloacae P99 AmpC + 8 μg/mL CAZ [3] | MIC of example compound, K. pneumoniae CTX-M-15 + 8 μg/mL CAZ [4] | IC50 [8] [nM] | IC50 [6, 11] [nM]
1 | CC(C)(O/N=C(\C(=O)N[C@@H]1C(=O)N2C(C(=O)[O-])=C(C[n+]3ccccc3)CS[C@H]12)c1csc(N)n1)C(=O)O [Ceftazidime, reference compound] | 32 | > 1020 | 128 | 128 | – | – | – | – | – | – | – | – | –
2 | Cl.NCCOc1cccc(CC(=O)N[C@@H](Cc2cccc(C(=O)O)c2O)B(O)O)c1 [Example 4, (1R)-1-[3-(2-amino)-ethoxy-phenyl]acetylamino-1-(3-carboxy-2-hydroxy)benzyl-methylboronic acid hydrochloride] | – | – | – | – | < 10 | C (C represents an MIC of <1 μg/mL) | < 10 | < 10 | C (C represents an MIC of <1 μg/mL) | C (C represents an MIC of <1 μg/mL) | C (C represents an MIC of <1 μg/mL) | – | –
3 | O=C(CCC(=O)c1cccs1)N[C@@H](Cc1cccc(C(=O)O)c1O)B(O)O [Example 5, (1R)-1-(4-Oxo-4-thiophen-2-yl-butyrylamino)-2-(2-hydroxy-3-carboxyphenyl)ethyl-1-boronic acid] | – | – | – | – | < 10 | C (C represents an MIC of <1 μg/mL) | < 10 | < 10 | – | C (C represents an MIC of <1 μg/mL) | C (C represents an MIC of <1 μg/mL) | – | –
4 | O=C(N[C@@H](Cc1cccc(C(=O)O)c1O)B(O)O)c1cccs1 [Example 11, (1R)-1-(thiophene-2-carbonyl-amino)-2-(2-hydroxy-3-carboxyphenyl)ethyl-1-boronic acid] | – | – | – | – | < 10 | C (C represents an MIC of <1 μg/mL) | 10 to 100 | < 10 | – | C (C represents an MIC of <1 μg/mL) | C (C represents an MIC of <1 μg/mL) | – | –
5 | O=C(N[C@@H](Cc1cccc(C(=O)O)c1O)B(O)O)c1ccccc1 [Example 13, (1R)-1-Benzoylamino-1-(3-carboxy-2-hydroxy)benzyl-methylboronic acid] | – | – | – | – | < 10 | C (C represents an MIC of <1 μg/mL) | 10 to 100 | 10 to 100 | – | C (C represents an MIC of <1 μg/mL) | C (C represents an MIC of <1 μg/mL) | < 10 | –
6 | CC(C)C(=O)N[C@@H](Cc1cccc(C(=O)O)c1O)B(O)O [Example 14, (1R)-1-Isobutyrylamino-1-(3-carboxy-2-hydroxy)benzyl-methylboronic acid] | – | – | – | – | < 10 | C (C represents an MIC of <1 μg/mL) | 100 to 1000 | 10 to 100 | – | C (C represents an MIC of <1 μg/mL) | C (C represents an MIC of <1 μg/mL) | – | –
7 | O=C(O)c1cccc(C[C@H](NC(=O)C2CCCC2)B(O)O)c1O [Example 15, (1R)-1-Cyclopentanecarbonylamino-(3-carboxy-2-hydroxy)benzyl-methylboronic acid] | – | – | – | – | < 10 | C (C represents an MIC of <1 μg/mL) | 100 to 1000 | 10 to 100 | – | C (C represents an MIC of <1 μg/mL) | C (C represents an MIC of <1 μg/mL) | – | –
8 | CCC(=O)N[C@@H](Cc1cccc(C(=O)O)c1O)B(O)O [Example 16, (1R)-1-(propionylamino)-2-(2-hydroxy-3-carboxyphenyl)ethyl-1-boronic acid] | – | – | – | – | 10 to 100 | C (C represents an MIC of <1 μg/mL) | 100 to 1000 | 10 to 100 | – | C (C represents an MIC of <1 μg/mL) | C (C represents an MIC of <1 μg/mL) | 10 to 100 | –
9 | O=C(O)c1cccc(C[C@H](NC(=O)C2CC2)B(O)O)c1O [Example 20, (1R)-1-Cyclopropanecarbonyl-amino-1-(3-carboxy-2-hydroxy)benzyl-methylboronic acid] | – | – | – | – | < 10 | C (C represents an MIC of <1 μg/mL) | 100 to 1000 | < 10 | – | C (C represents an MIC of <1 μg/mL) | C (C represents an MIC of <1 μg/mL) | 10 to 100 | –
10 | O=C(N[C@@H](Cc1cccc(C(=O)O)c1O)B(O)O)c1ccc(F)cc1 [Example 26, (1R)-1-(4-Fluorobenzoylamino)-(3-carboxy-2-hydroxy)benzyl-methylboronic acid] | – | – | – | – | < 10 | C (C represents an MIC of <1 μg/mL) | 10 to 100 | < 10 | – | C (C represents an MIC of <1 μg/mL) | C (C represents an MIC of <1 μg/mL) | < 10 | –
11 | O=C(N[C@@H](Cc1cccc(C(=O)O)c1O)B(O)O)c1ccc(O)cc1 [Example 36, (1R)-1-(4-Hydroxybenzoyl)-amino-1-(3-carboxy-2-hydroxy)benzyl-methylboronic acid] | – | – | – | – | < 10 | C (C represents an MIC of <1 μg/mL) | – | < 10 | – | C (C represents an MIC of <1 μg/mL) | C (C represents an MIC of <1 μg/mL) | < 10 | 100 to 1000
12 | CC(=O)NCC(=O)N[C@@H](Cc1cccc(C(=O)O)c1O)B(O)O [Example 37, (1R)-1-(2-acetamidoacetylamino)-2-(2-hydroxy-3-carboxyphenyl)ethyl-1-boronic acid] | – | – | – | – | 10 to 100 | C (C represents an MIC of <1 μg/mL) | – | 10 to 100 | – | C (C represents an MIC of <1 μg/mL) | C (C represents an MIC of <1 μg/mL) | 10 to 100 | 10 to 100
13 | O=C(N[C@@H](Cc1cccc(C(=O)O)c1O)B(O)O)c1ccno1 [Example 46, (1R)-1-(isoxazole-5-carbonyl-amino)-2-(2-hydroxy-3-carboxyphenyl)ethyl-1-boronic acid] | – | – | – | – | < 10 | C (C represents an MIC of <1 μg/mL) | – | < 10 | – | C (C represents an MIC of <1 μg/mL) | C (C represents an MIC of <1 μg/mL) | 10 to 100 | < 10
14 | CC(=O)N1CCC(C(=O)N[C@@H](Cc2cccc(C(=O)O)c2O)B(O)O)CC1 [Example 49, (1R)-1-(1-Acetyl-piperidine-4-carbonyl)-amino-1-(3-carboxy-2-hydroxy)benzyl-methylboronic acid] | – | – | – | – | 10 to 100 | C (C represents an MIC of <1 μg/mL) | – | 10 to 100 | – | C (C represents an MIC of <1 μg/mL) | C (C represents an MIC of <1 μg/mL) | < 10 | 100 to 1000
